{"source": "patent US10793549B2", "about": "“Sulfuryl-substituted benzoheterocyclic derivative, preparation method and medical use thereof” (SHANGHAI HAIYAN PHARMACEUTICAL TECHNOLOGY CO., LTD., priority 2016, dated 2020)", "key": {"EZH2 Y641F": {"target": "EZH2 Y641F (Homo sapiens (Human), UniProt Q15910, Y641F)", "sequence (Q15910 whole entry Y641F)": "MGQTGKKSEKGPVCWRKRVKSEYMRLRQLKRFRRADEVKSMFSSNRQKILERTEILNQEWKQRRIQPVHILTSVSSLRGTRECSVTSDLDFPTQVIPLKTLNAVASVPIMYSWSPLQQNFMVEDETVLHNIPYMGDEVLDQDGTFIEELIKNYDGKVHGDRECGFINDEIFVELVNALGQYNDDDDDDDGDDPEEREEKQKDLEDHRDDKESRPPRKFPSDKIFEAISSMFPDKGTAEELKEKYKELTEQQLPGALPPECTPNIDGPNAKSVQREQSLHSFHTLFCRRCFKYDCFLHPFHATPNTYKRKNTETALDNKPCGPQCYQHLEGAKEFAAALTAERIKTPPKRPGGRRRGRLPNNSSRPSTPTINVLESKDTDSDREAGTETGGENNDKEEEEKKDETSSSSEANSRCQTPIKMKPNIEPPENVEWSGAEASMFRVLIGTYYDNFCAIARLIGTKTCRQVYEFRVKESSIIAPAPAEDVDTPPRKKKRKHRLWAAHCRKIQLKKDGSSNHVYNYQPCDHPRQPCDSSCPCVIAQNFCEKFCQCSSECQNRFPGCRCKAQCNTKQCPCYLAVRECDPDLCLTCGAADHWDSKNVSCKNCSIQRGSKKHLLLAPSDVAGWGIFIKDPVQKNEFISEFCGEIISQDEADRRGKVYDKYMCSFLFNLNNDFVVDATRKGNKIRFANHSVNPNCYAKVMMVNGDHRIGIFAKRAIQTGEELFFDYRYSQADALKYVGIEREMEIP", "sequence (O75530 whole entry partner)": "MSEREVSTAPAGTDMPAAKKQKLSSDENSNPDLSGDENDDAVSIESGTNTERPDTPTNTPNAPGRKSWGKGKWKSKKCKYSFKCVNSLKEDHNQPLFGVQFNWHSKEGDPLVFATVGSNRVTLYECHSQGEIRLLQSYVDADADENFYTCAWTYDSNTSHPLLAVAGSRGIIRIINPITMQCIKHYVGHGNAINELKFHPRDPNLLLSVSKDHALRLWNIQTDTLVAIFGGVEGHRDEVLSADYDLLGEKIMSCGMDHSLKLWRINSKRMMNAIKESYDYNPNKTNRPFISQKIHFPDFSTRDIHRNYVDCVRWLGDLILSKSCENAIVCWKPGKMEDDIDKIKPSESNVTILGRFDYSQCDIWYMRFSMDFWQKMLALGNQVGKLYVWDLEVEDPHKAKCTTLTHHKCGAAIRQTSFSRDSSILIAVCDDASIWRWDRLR", "sequence (Q15022 whole entry partner)": "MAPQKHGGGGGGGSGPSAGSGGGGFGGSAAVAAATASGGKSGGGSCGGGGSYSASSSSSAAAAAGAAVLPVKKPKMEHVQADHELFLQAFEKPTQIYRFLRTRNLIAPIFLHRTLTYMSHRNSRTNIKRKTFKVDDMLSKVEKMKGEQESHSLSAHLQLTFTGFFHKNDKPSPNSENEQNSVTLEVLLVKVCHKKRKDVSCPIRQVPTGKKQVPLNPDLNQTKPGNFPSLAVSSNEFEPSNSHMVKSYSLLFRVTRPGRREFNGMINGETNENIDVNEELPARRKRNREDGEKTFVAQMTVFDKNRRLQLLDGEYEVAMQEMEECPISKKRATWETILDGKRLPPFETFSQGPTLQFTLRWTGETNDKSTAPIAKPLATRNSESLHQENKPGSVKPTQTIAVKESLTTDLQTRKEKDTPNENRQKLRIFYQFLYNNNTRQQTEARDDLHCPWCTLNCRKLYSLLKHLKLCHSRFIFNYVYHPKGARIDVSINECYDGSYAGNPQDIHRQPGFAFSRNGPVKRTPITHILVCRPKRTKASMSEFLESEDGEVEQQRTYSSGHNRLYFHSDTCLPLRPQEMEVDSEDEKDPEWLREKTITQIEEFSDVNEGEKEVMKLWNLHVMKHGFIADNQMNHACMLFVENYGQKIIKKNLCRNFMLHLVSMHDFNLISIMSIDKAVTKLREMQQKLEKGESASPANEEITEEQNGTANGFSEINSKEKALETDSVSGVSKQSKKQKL", "sequence (Q09028 whole entry partner)": "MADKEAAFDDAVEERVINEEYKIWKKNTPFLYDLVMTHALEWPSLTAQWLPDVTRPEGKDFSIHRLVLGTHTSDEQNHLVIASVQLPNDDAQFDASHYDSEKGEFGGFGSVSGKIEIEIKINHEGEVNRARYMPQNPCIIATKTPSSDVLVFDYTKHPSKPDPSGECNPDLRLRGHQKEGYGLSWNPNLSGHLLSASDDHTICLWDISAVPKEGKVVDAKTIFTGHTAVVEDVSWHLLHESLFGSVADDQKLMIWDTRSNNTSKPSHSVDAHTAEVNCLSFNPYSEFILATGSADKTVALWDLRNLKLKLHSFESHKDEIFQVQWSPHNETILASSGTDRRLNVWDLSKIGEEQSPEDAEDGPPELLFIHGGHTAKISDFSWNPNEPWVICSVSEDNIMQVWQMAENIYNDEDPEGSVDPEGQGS", "sequence (Q6ZN18 whole entry partner)": "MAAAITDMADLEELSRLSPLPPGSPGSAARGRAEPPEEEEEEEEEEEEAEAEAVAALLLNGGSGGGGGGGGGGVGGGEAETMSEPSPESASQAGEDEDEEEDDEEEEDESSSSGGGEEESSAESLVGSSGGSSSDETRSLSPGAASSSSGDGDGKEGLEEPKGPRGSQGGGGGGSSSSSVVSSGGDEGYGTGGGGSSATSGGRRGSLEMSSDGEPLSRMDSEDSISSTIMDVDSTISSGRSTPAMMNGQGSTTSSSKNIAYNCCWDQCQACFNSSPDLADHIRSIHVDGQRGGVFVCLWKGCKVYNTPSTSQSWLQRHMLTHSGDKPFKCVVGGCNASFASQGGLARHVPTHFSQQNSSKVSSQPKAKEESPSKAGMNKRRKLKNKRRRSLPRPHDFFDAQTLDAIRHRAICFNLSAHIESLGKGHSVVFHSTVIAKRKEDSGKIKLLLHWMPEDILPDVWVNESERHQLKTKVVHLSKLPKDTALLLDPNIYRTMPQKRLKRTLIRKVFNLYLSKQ", "experiment": "In vitro methyltransferase activity test (LANCE Ultra)", "format": "biochemical", "conditions": "Recombinant PRC2 (EZH2-Y641F), 2.5 μM SAM/250 nM H3(1-50)K27me1, 3 hours, room temperature", "procedure": "The detection system uses LANCEUltra system (Perkinelmer company). […] And then a buffer [20 mM Tris pH8.5, 2 mM MgCl2, 0.01% Tween-20, 1 mM TCEP] containing 2.5 μM SAM/250 nM H3 (1-50)K27me1 premixtures was added, thus the enzyme reaction was started at room temperature. After reacting for 3 hours, a test solution premixed with PLL, detection antibody and Ulight was added, and reacted for 1h at room temperature, then the fluorescence value was read on a Tecan infinite pro. IC50 was calculated by fitting a four-factor model in the XLfit software."}, "Pfeiffer cells": {"test_system": "Pfeiffer cells", "experiment": "Cell proliferation test (Cell counting kit-8, 6 days)", "format": "cell-based", "conditions": "Pfeiffer (CRL-2632) cells, culture for 6 days, viable cells by Cell counting kit-8", "experimental": "The used cell lines Pfeiffer (CRL-2632), suDHL-6 (CRL-2959) and suDHL-10 (CRL-2963) were purchased from American Type Culture Collection (ATCC). All cell lines were cultured in RPMI-1640 medium (Gibco) containing 10% fetal bovine serum (Gibco). The cultured cells were collected by centrifugation and the cell density was measured on a CounterStar counter. Appropriate number of cells were then seeded in a 96-well culture plate and incubated overnight. Compounds to be tested were diluted by 8 gradient points in a ratio of 1:3 and added into the corresponding wells. After continuing to culture for 6 days, the number of viable cells was measured with Cell counting kit-8, and the absorbance value was read on Tecan infinite pro. The IC50 was calculated by fitting a four-parameter model in the XLfit software."}}, "note": "pIC50: −log10 of the molar value."}
{"molecule": "C=CCC1(S(=O)(=O)n2cc(C)c3c(C(=O)NCc4c(C)cc(C)[nH]c4=O)cc(-c4ccc(CCN5CCOCC5)nc4)cc32)CC1", "note": "[Compound G-3]", "values": [{"measurement": "pIC50", "setting": "EZH2 Y641F", "value": 7.55}, {"measurement": "pIC50", "setting": "Pfeiffer cells", "value": 6.52}]}
{"molecule": "C=CCC1(S(=O)(=O)n2cc(C)c3c(C(=O)NCc4c(C)cc(C)[nH]c4=O)cc(-c4ccc(CN(C)C)cc4)cc32)CC1", "note": "[Compound G-4]", "values": [{"measurement": "pIC50", "setting": "EZH2 Y641F", "value": 7.66}]}
{"molecule": "C=CCC1(S(=O)(=O)n2cc(C)c3c(C(=O)NCc4c(C)cc(C)[nH]c4=O)cc(-c4ccc(OCCN(C)C)cc4)cc32)CC1", "note": "[Compound G-5]", "values": [{"measurement": "pIC50", "setting": "EZH2 Y641F", "value": 7.77}, {"measurement": "pIC50", "setting": "Pfeiffer cells", "value": 6.37}]}
{"molecule": "C=CCC1(S(=O)(=O)n2cc(C)c3c(C(=O)NCc4c(C)cc(C)[nH]c4=O)cc(-c4ccc(CN(C)C)cc4)cc32)CC1", "note": "[Compound G-6]", "values": [{"measurement": "pIC50", "setting": "EZH2 Y641F", "value": 7.72}, {"measurement": "pIC50", "setting": "Pfeiffer cells", "value": 6.45}]}
{"molecule": "C=CCC1(S(=O)(=O)n2cc(C)c3c(C(=O)NCc4c(C)cc(C)[nH]c4=O)cc(-c4cccnc4)cc32)CC1", "note": "[Compound G-7]", "values": [{"measurement": "pIC50", "setting": "EZH2 Y641F", "value": 7.48}, {"measurement": "pIC50", "setting": "Pfeiffer cells", "value": 6.42}]}
{"molecule": "C=CCC1(S(=O)(=O)n2cc(C)c3c(C(=O)NCc4c(C)cc(C)[nH]c4=O)cc(-c4ccc(N(C)C)nc4)cc32)CC1", "note": "[Compound G-8]", "values": [{"measurement": "pIC50", "setting": "EZH2 Y641F", "value": 7.40}, {"measurement": "pIC50", "setting": "Pfeiffer cells", "value": 6.49}]}
{"molecule": "C=CCC1(S(=O)(=O)n2cc(C)c3c(C(=O)NCc4c(C)cc(C)[nH]c4=O)cc(-c4ccc(N)nc4)cc32)CC1", "note": "[Compound G-9]", "values": [{"measurement": "pIC50", "setting": "EZH2 Y641F", "value": 7.46}, {"measurement": "pIC50", "setting": "Pfeiffer cells", "value": 6.35}]}
{"molecule": "C=CCC1(S(=O)(=O)n2cc(C)c3c(C(=O)NCc4c(C)cc(C)[nH]c4=O)cc(-c4ccc(C#N)nc4)cc32)CC1", "note": "[Compound G-10]", "values": [{"measurement": "pIC50", "setting": "EZH2 Y641F", "value": 7.39}]}
{"molecule": "C=CCC1(S(=O)(=O)n2cc(C)c3c(C(=O)NCc4c(C)cc(C)[nH]c4=O)cc(-c4ccc(OCCCN(C)C)cc4)cc32)CC1", "note": "[Compound G-11]", "values": [{"measurement": "pIC50", "setting": "EZH2 Y641F", "value": 7.49}]}
{"molecule": "C=CCC1(S(=O)(=O)n2cc(C)c3c(C(=O)NCc4c(C)cc(C)[nH]c4=O)cc(-c4ccc(N5CCOCC5)nc4)cc32)CC1", "note": "[Compound G-12]", "values": [{"measurement": "pIC50", "setting": "EZH2 Y641F", "value": 7.24}, {"measurement": "pIC50", "setting": "Pfeiffer cells", "value": 6.31}]}
{"molecule": "C=CCC1(S(=O)(=O)n2cc(C)c3c(C(=O)NCc4c(C)cc(C)[nH]c4=O)cc(-c4cnc(N5CCN(C)CC5)nc4)cc32)CC1", "note": "[Compound G-13]", "values": [{"measurement": "pIC50", "setting": "EZH2 Y641F", "value": 7.89}, {"measurement": "pIC50", "setting": "Pfeiffer cells", "value": 7.12}]}
{"molecule": "C=CCC1(S(=O)(=O)n2cc(OC)c3c(C(=O)NCc4c(C)cc(C)[nH]c4=O)cc(-c4ccc(N5CCN(C)CC5)nc4)cc32)CC1", "note": "[Compound G-14]", "values": [{"measurement": "pIC50", "setting": "EZH2 Y641F", "value": 8.30}, {"measurement": "pIC50", "setting": "Pfeiffer cells", "value": 7.57}]}
{"molecule": "C=CCC1(S(=O)(=O)n2cc(C)c3c(C(=O)NCc4c(C)cc(C)[nH]c4=O)cc(-c4ccc(CN(C)C)cc4F)cc32)CC1", "note": "[Compound G-15]", "values": [{"measurement": "pIC50", "setting": "EZH2 Y641F", "value": 7.60}, {"measurement": "pIC50", "setting": "Pfeiffer cells", "value": 6.66}]}
{"molecule": "C=CCC1(S(=O)(=O)n2cc(C)c3c(C(=O)NCc4c(C)cc(C)[nH]c4=O)cc(-c4ccc(CN(C)C)c(F)c4)cc32)CC1", "note": "[Compound G-16]", "values": [{"measurement": "pIC50", "setting": "EZH2 Y641F", "value": 7.64}, {"measurement": "pIC50", "setting": "Pfeiffer cells", "value": 6.47}]}
{"molecule": "C=CCC1(S(=O)(=O)n2cc(C)c3c(C(=O)NCc4c(C)cc(C)[nH]c4=O)cc(-c4ccc(CN(C)C)cc4F)cc32)CC1", "note": "[Compound G-18]", "values": [{"measurement": "pIC50", "setting": "EZH2 Y641F", "value": 7.38}, {"measurement": "pIC50", "setting": "Pfeiffer cells", "value": 6.43}]}
{"molecule": "C=CCC1(S(=O)(=O)n2cc(C)c3c(C(=O)NCc4c(C)cc(C)[nH]c4=O)cc(-c4ccc(F)c(CN(C)C)c4)cc32)CC1", "note": "[Compound G-21]", "values": [{"measurement": "pIC50", "setting": "EZH2 Y641F", "value": 7.43}]}
{"molecule": "C=CCC1(S(=O)(=O)n2cc(C)c3c(C(=O)NCc4c(C)cc(C)[nH]c4=O)cc(-c4cnc(N5CC(F)C5)nc4)cc32)CC1", "note": "[Compound G-24]", "values": [{"measurement": "pIC50", "setting": "EZH2 Y641F", "value": 7.49}, {"measurement": "pIC50", "setting": "Pfeiffer cells", "value": 7.22}]}
{"molecule": "C=CCC1(S(=O)(=O)n2cc(C)c3c(C(=O)NCc4c(OC)cc(C)[nH]c4=O)cc(-c4cnc(N5CC(F)C5)nc4)cc32)CC1", "note": "[Compound G-30]", "values": [{"measurement": "pIC50", "setting": "EZH2 Y641F", "value": 8.05}, {"measurement": "pIC50", "setting": "Pfeiffer cells", "value": 7.01}]}
{"molecule": "C=CCC1(S(=O)(=O)n2cc(C)c3c(C(=O)NCc4c(OC)cc(C)[nH]c4=O)cc(-c4ccc(CN(C)C)cc4)cc32)CC1", "note": "[Compound G-32]", "values": [{"measurement": "pIC50", "setting": "EZH2 Y641F", "value": 8.10}, {"measurement": "pIC50", "setting": "Pfeiffer cells", "value": 7.10}]}
{"molecule": "C=CCC1(S(=O)(=O)n2cc(C)c3c(C(=O)NCc4c(OC)cc(C)[nH]c4=O)cc(-c4ccc(N)nc4)cc32)CC1", "note": "[Compound G-36]", "values": [{"measurement": "pIC50", "setting": "EZH2 Y641F", "value": 7.80}, {"measurement": "pIC50", "setting": "Pfeiffer cells", "value": 7.07}]}
{"molecule": "Cc1cc(C)c(CNC(=O)c2cc(-c3ccc(N4CCN(C)CC4)nc3)cc3c2CCN3S(=O)(=O)C(C)C)c(=O)[nH]1", "note": "[Compound G-47, N-((4,6-dimethyl-2-oxo-1,2-dihydropyridin-3-yl)methyl)-1-(isopropylsulfonyl)-6-(6-(4-methylpiperazin-1-yl)pyridin-3-yl)dihydroindole-4-carboxamide]", "values": [{"measurement": "pIC50", "setting": "EZH2 Y641F", "value": 6.80}, {"measurement": "pIC50", "setting": "Pfeiffer cells", "value": 5.69}]}
{"molecule": "C=CCC1(S(=O)(=O)n2cc(C)c3c(C(=O)NCc4c(C)cc(C)[nH]c4=O)cc(-c4ccc(N5CCN(C(C)C)CC5)nc4)cc32)CC1", "note": "[Compound G-48, 1-(1-allylcyclopropylsulfonyl)-N-((4,6-dimethyl-2-oxo-1,2-dihydropyridin-3-yl)methyl)-6-(6-(4-isopropylpiperazin-1-yl)pyridin-3-yl)-3-methyl-1H-indole-4-carboxamide]", "values": [{"measurement": "pIC50", "setting": "EZH2 Y641F", "value": 7.55}, {"measurement": "pIC50", "setting": "Pfeiffer cells; Homo sapiens, 144 h", "value": 6.68}]}
{"molecule": "C=CCC1(S(=O)(=O)n2cc(C)c3c(C(=O)NCc4c(C)cc(C)[nH]c4=O)cc(-c4cnc(N5CCNCC5)nc4)cc32)CC1", "note": "[Compound G-65]", "values": [{"measurement": "pIC50", "setting": "EZH2 Y641F", "value": 7.77}, {"measurement": "pIC50", "setting": "Pfeiffer cells", "value": 6.77}]}
{"molecule": "C=CCC1(S(=O)(=O)n2cc(C)c3c(C(=O)NCc4c(OC)cc(C)[nH]c4=O)cc(-c4cnc(N5CCN(C(C)C)CC5)nc4)cc32)CC1", "note": "[Compound G-67]", "values": [{"measurement": "pIC50", "setting": "EZH2 Y641F", "value": 8.15}, {"measurement": "pIC50", "setting": "Pfeiffer cells; Homo sapiens, 144 h", "value": 7.66}]}
{"molecule": "C=CCC1(S(=O)(=O)n2cc(C)c3c(C(=O)NCc4c(OC(F)F)cc(C)[nH]c4=O)cc(-c4ccc(N5CCN(C)CC5)nc4)cc32)CC1", "note": "[Compound G-68]", "values": [{"measurement": "pIC50", "setting": "EZH2 Y641F", "value": 7.47}, {"measurement": "pIC50", "setting": "Pfeiffer cells", "value": 6.82}]}
{"molecule": "C=CCC1(S(=O)(=O)n2cc(C)c3c(C(=O)NCc4c(OC)cc(C)[nH]c4=O)cc(N4CCN(C)CC4)cc32)CC1", "note": "[Compound G-69]", "values": [{"measurement": "pIC50", "setting": "EZH2 Y641F", "value": 7.59}]}
{"molecule": "C=CCC1(S(=O)(=O)N2CC(C)c3c(C(=O)NCc4c(C)cc(C)[nH]c4=O)cc(-c4ccc(CN(C)C)cc4)cc32)CC1", "note": "(centres unmarked) [Compound G-75]", "values": [{"measurement": "pIC50", "setting": "EZH2 Y641F", "value": 6.55}, {"measurement": "pIC50", "setting": "Pfeiffer cells", "value": 5.74}]}
{"molecule": "C=CCC1(S(=O)(=O)N2CCc3c(C(=O)NCc4c(C)cc(C)[nH]c4=O)cc(-c4ccc(N5CCN(C)CC5)nc4)cc32)CC1", "note": "[Compound G-76]", "values": [{"measurement": "pIC50", "setting": "EZH2 Y641F", "value": 6.34}, {"measurement": "pIC50", "setting": "Pfeiffer cells", "value": 5.59}]}
{"molecule": "C=CCC1(S(=O)(=O)N2CC(C)c3c(C(=O)NCc4c(C)cc(C)[nH]c4=O)cc(-c4ccc(N5CCN(C)CC5)nc4)cc32)CC1", "note": "(centres unmarked) [Compound G-77]", "values": [{"measurement": "pIC50", "setting": "EZH2 Y641F", "value": 6.83}, {"measurement": "pIC50", "setting": "Pfeiffer cells", "value": 5.82}]}
{"molecule": "C=CCC1(S(=O)(=O)n2nc(C(F)F)c3c(C(=O)NCc4c(C)cc(C)[nH]c4=O)cc(-c4ccc(N5CCN(C)CC5)nc4)cc32)CC1", "note": "[Compound G-78]", "values": [{"measurement": "pIC50", "setting": "EZH2 Y641F", "value": 5.85}, {"measurement": "pIC50", "setting": "Pfeiffer cells", "value": 5.60}]}
{"molecule": "C=CCC1(S(=O)(=O)n2nc(C)c3c(C(=O)NCc4c(C)cc(C)[nH]c4=O)cc(-c4ccc(N5CCN(C)CC5)nc4)cc32)CC1", "note": "[Compound G-79]", "values": [{"measurement": "pIC50", "setting": "EZH2 Y641F", "value": 6.23}, {"measurement": "pIC50", "setting": "Pfeiffer cells", "value": 5.55}]}
{"molecule": "C#CCCS(=O)(=O)n1cc(C)c2c(C(=O)NCc3c(OC)cc(C)[nH]c3=O)cc(-c3ccc(N4CCN(C)CC4)nc3)cc21", "note": "[Compound G-81]", "values": [{"measurement": "pIC50", "setting": "EZH2 Y641F", "value": 6.71}, {"measurement": "pIC50", "setting": "Pfeiffer cells", "value": 5.42}]}
